Data from patent US5164295A, “Method for identifying amyloid protein-extracellular matrix protein affinity altering compounds” (The Upjohn Company, priority 1991, dated 1992).

Key:
[1] = target: T1, HSPG binding to AAP695 /s (Homo sapiens, UniProt P05067); assay: Effect of test compounds on intact HSPG binding to immobilized AAP695 /s (ELISA); conditions: for HSPG binding, % of control: AAP695
T1 construct: maintained the entire extracellular portion of the AAP; made in house; host or cells: insect cells (recombinant baculovirus)
Description: (§1) The assay comprised immobilizing AAP695 /s which was then exposed to free HSPG in the absence or presence of test compounds. Other aspects of the assay included exposing free HSPG to either immobilized AAP751 /s, or AAP770 /s, each in the absence or presence of test compounds. The assay was also performed with fibronectin as the immobilized protein in order to provide a positive control. In each case, a series of concentrations of HSPG and test compounds was used. Additionally, to determine whether or not the carbohydrate moiety of HSPG was involved in the binding to immobilized components, the carbohydrate moiety of HSPG was removed and assays were performed using the carbohydrate-free HSPG core protein. The test compounds used in experiments described here include heparin, dextran sulfate, chondroitin sulfate, dermatan sulfate, fibronectin, gelatin, bovine serum albumin (BSA), Ca^++ (CaCl2), Mg^++ (MgCl2), Mn^++ (MnCl2), Co^++ (Co(NO3)2), and Zn^++ (ZnCl2).
(§2) The assay used in studying the interaction between HSPG and protein ligands was an ELISA technique. Briefly, polystyrene micro-titer plates (Linbro, Flow Lab Inc.) were coated with a 100 μl solution, containing 1 μg/ml of the protein of interest (one of the three forms of AAP or fibronectin) in 20 mM NaHCO3 buffer pH 9.6. After incubation overnight at 4° C., the plates were rinsed with 0.15M NaCl, 20 mM Tris-Cl pH 7.5 (TBS). The plates were then incubated with 150 μl of 1% BSA in TBS for 2 hours at 37° C. to block the residual hydrophobic surface on the wells. After rinsing with TBS containing 0.05% (w/v) Tween 20 (TBS-Tween), 100 μl of various concentrations of HSPG in TBS-Tween were added. The plates were left overnight at 4° C., to permit maximum binding of HSPG to the coated proteins. The plates were then washed extensively and incubated for 2 hours at 37° C., with 100 μl of anti-HSPG diluted in TBS-Tween containing 0.1% BSA. The plates were washed again and incubated for another 2 hours with 100 μl of goat anti-rabbit-IgG conjugated with alkaline phosphatase (1:2000 dilution) in TBS-Tween containing BSA as above. Finally, after further washing, the bound antibodies were detected by adding an alkaline phosphatase substrate solution (100 μl) containing 2 mg/ml p-nitrophenyl phosphate, 0.1 mM ZnCl2, 1 mM MgCl2 and 100 mM glycine pH 10. The plates were left at room temperature for 15-120 minutes depending on the protein tested. The enzyme reaction was stopped by addition of 50 μl of 2M NaOH. The absorbance of the released p-nitrophenol was measured at 405 nm with a Titertek Multiscan/MCC 340 (Flow Lab. Ltd.). The amounts of HSPG bound were determined by the net OD405 after substracting the OD from the blank wells in which the HSPG incubation step was omitted. When the actual amounts of HSPG bound were to be calculated, a set of standards (0.05-50 ng/well) of HSPG in NaHCO3 buffer were pre-coated into wells on the same plates as the test proteins. The incubations proceeded as described above omitting the incubation of the HSPG solution with the HSPG standard coated wells. The actual amounts of HSPG bound to the test proteins were calculated from the OD405 standard curve produced by the HSPG standards using a Titersoft II E.J.A. software program (Flow Lab. Ltd.).
(§3) Heparin and dextran sulfate, respectively, were each used as test compounds to determine their effect on the HSPG binding to AAP forms and fibronectin. Various concentrations of heparin or dextran sulfate were added together with a constant amount of HSPG to wells coated with AAPs for fibronectin.

[2] = target: T2, HSPG binding to AAP751 /s (Homo sapiens, UniProt P05067); assay: Effect of test compounds on intact HSPG binding to immobilized AAP751 /s (ELISA); conditions: for HSPG binding, % of control: AAP751
T2 construct: maintained the entire extracellular portion of the AAP; made in house; host or cells: insect cells (recombinant baculovirus)
Description: as §1, §2, §3

[3] = system: HSPG binding to fibronectin; assay: Effect of test compounds on intact HSPG binding to immobilized fibronectin (ELISA); parameters: species or system bovine; conditions: for HSPG binding, % of control: fibronectin
Description: as §1
Fibronectin (from bovine plasma), heparin (grade II from porcine intestinal mucosa, average molecular weight=[…]), heparan sulfate, chondroitin sulfate, dextran sulfate, BSA, and alkaline phosphatase substrate were obtained from Sigma, St. Louis, Mo. Alkaline phosphatase conjugated goat anti-rabbit IgG was obtained from Boehringer-Manneheim, and heparitinase from ICN Biochemicals.
as §2, §3

[4] = target: HSPG core protein binding to AAP695 /s; assay: Effect of heparin on HSPG core protein binding to immobilized AAP695 /s (ELISA); conditions: heparin 400 μg/ml
Description: The assay used in studying the interaction between HSPG and protein ligands was an ELISA technique. Briefly, polystyrene micro-titer plates (Linbro, Flow Lab Inc.) were coated with a 100 μl solution, containing 1 μg/ml of the protein of interest (one of the three forms of AAP or fibronectin) in 20 mM NaHCO3 buffer pH 9.6. After incubation overnight at 4° C., the plates were rinsed with 0.15M NaCl, 20 mM Tris-Cl pH 7.5 (TBS). The plates were then incubated with 150 μl of 1% BSA in TBS for 2 hours at 37° C. to block the residual hydrophobic surface on the wells. After rinsing with TBS containing 0.05% (w/v) Tween 20 (TBS-Tween), 100 μl of various concentrations of HSPG in TBS-Tween were added. […] Finally, after further washing, the bound antibodies were detected by adding an alkaline phosphatase substrate solution (100 μl) containing 2 mg/ml p-nitrophenyl phosphate, 0.1 mM ZnCl2, 1 mM MgCl2 and 100 mM glycine pH 10. […] The absorbance of the released p-nitrophenol was measured at 405 nm with a Titertek Multiscan/MCC 340 (Flow Lab. Ltd.). The amounts of HSPG bound were determined by the net OD405 after substracting the OD from the blank wells in which the HSPG incubation step was omitted. When the actual amounts of HSPG bound were to be calculated, a set of standards (0.05-50 ng/well) of HSPG in NaHCO3 buffer were pre-coated into wells on the same plates as the test proteins. […]

[5] = test compound 500 μg/ml (Table II)

HSPG binding to fibronectin, sequence (P07589 with tags, fused parts or gaps DEL1267-1357/DEL1723-1812 limits assumed): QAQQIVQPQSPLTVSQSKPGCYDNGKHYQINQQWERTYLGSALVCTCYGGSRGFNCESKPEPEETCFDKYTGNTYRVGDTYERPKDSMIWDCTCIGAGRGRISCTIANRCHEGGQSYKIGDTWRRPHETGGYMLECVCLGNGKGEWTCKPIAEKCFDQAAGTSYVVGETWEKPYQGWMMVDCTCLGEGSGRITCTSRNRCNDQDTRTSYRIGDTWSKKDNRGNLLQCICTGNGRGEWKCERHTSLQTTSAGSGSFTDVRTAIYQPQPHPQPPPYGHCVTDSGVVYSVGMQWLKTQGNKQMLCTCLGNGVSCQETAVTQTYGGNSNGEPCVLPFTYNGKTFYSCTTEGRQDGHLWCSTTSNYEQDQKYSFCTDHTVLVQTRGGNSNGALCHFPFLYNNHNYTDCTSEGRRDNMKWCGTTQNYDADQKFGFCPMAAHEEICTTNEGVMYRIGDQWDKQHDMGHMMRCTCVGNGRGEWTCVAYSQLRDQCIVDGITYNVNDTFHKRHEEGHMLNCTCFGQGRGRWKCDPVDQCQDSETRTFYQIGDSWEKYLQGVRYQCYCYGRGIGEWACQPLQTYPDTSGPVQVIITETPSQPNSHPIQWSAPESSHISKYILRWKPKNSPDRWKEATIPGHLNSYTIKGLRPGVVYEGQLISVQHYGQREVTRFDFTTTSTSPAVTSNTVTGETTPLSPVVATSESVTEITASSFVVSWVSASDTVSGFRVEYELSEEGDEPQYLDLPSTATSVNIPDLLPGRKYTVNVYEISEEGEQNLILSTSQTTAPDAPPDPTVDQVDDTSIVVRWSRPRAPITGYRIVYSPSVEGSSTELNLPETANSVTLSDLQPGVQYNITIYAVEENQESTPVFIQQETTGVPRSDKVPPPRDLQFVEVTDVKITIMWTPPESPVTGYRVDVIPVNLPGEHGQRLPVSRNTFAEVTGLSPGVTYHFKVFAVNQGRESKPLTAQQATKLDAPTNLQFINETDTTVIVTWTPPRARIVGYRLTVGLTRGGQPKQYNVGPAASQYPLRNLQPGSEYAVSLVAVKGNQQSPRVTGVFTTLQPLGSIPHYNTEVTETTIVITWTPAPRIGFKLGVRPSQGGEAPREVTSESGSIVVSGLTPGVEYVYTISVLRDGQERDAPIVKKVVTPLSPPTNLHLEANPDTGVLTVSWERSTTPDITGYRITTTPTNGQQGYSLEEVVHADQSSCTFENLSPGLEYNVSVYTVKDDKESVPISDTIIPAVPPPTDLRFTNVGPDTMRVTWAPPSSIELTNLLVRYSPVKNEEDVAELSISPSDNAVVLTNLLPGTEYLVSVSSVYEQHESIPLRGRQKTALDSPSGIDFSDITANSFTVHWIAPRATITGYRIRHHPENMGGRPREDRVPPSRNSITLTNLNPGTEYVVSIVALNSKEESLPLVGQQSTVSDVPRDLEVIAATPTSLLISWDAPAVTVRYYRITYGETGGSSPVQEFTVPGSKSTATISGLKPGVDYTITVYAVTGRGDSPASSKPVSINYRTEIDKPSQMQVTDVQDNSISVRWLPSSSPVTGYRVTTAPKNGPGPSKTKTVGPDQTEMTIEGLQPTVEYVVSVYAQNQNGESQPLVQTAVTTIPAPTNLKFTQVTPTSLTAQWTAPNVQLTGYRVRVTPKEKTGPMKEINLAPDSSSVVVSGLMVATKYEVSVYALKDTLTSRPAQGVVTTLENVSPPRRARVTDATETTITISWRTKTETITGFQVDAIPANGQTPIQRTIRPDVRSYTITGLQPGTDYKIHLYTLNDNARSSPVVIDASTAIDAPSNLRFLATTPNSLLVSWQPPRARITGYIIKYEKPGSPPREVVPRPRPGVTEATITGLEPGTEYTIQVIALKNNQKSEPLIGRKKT

- mode of inhibition of HSPG binding to AAP695 /s [1]: probably competitive
- Activity: binding of intact HSPG, percentage ± SD of control ([1]; AAP695 /S, addition 500 μg/ml, HSPG 2 μg/ml): 10.2 ± 5.2%
- HSPG binding, % of control ([1]; test compound 31.2 μg/ml): 29%
- HSPG binding, % of control ([1]; test compound 62.5 μg/ml): 26%
- HSPG binding, % of control ([1]; test compound 125 μg/ml): 16%
- HSPG binding, % of control ([1]; test compound 250 μg/ml): 10%
- HSPG binding, % of control [1, 5]: 7%
- HSPG binding, % of control ([1]; test compound 1000 μg/ml): 3%
- HSPG binding, % of control ([1]; test compound 2000 μg/ml): 2%
- HSPG binding, % of control ([1]; test compound 4000 μg/ml): 1%
- Ki ([1]; calculated from Kdapp = Kdcon (1+[I]/Ki), heparin 400 μg/ml, AAP695 /s): ~5.5 µM
- factor by which HSPG affinity for AAP-695/s is reduced ([1]; heparin 400 μg/ml): 5-10
- increase of Kd of intact HSPG for AAP695 /s in presence of heparin ([1]; heparin 400 μg/ml): approximately four-fold
- inhibition of HSPG binding to AAP695 /s ([1]; test compound 62.5 μg/ml): 75%
- mode of inhibition of HSPG binding to AAP751 /s [2]: noncompetitive
- Activity: binding of intact HSPG, percentage ± SD of control ([2]; AAP751 /S, addition 500 μg/ml, HSPG 2 μg/ml): 69 ± 12%
- HSPG binding, % of control ([2]; test compound 31.2 μg/ml): 89%
- HSPG binding, % of control ([2]; test compound 62.5 μg/ml): 75%
- HSPG binding, % of control ([2]; test compound 125 μg/ml): 84%
- HSPG binding, % of control ([2]; test compound 250 μg/ml): 82%
- HSPG binding, % of control [2, 5]: 54%
- HSPG binding, % of control ([2]; test compound 1000 μg/ml): 60%
- HSPG binding, % of control ([2]; test compound 2000 μg/ml): 53%
- HSPG binding, % of control ([2]; test compound 4000 μg/ml): 58%
- effect of heparin on Kd of HSPG when using AAP751 /s ([2]; heparin 400 μg/ml, intact HSPG or core protein): No such effect
- mode of inhibition of HSPG binding to fibronectin [3]: noncompetitive
- Activity: binding of intact HSPG, percentage ± SD of control ([3]; Fibronectin, addition 500 μg/ml, HSPG 2 μg/ml): 71.7 ± 4.9%
- HSPG binding, % of control ([3]; test compound 31.2 μg/ml): 93%
- HSPG binding, % of control ([3]; test compound 62.5 μg/ml): 91%
- HSPG binding, % of control ([3]; test compound 125 μg/ml): 73%
- HSPG binding, % of control ([3]; test compound 250 μg/ml): 85%
- HSPG binding, % of control [3, 5]: 79%
- HSPG binding, % of control ([3]; test compound 1000 μg/ml): 79%
- HSPG binding, % of control ([3]; test compound 2000 μg/ml): 77%
- HSPG binding, % of control ([3]; test compound 4000 μg/ml): 74%
- Ki ([4]; calculated from Kdapp = Kdcon (1+[I]/Ki), AAP695 /s): ~1.6 µM
- increase of Kd of HSPG core protein for AAP695 /s in presence of heparin [4]: approximately ten-fold
Substance: heparin
